Results from patent publication US20060041013A1, “Alanosine formulations and methods of use” (priority 2004, published 2006).
Like-named read-outs stand apart in the source and are kept apart here.

Tests used:
[1] = cited from earlier work
PANC-1 = assay: Docetaxel, 5-FU, SDX-102 alone or combined, MTT/MTS cytotoxicity (Example 4); format: cell-based; settings: Homo sapiens; PANC-1, Pancreatic, single agent, MTT 72 hours
[2] = 6 months, 20 mg/mL, pH 8.5
Description: Each solution was divided into 5 mL aliquots and placed in 6 mL vials sealed with Teflon-faced screw caps (VWR Scientific, catalogue No. 66011-880). Vials of each solution were placed at five different temperatures, −20° C., 5° C., 25° C., 40° C., and 60° C., and aliquots were analyzed at various time points to determine stability.

HS-766T = assay: Cell viability MTT assay (Example 3); format: cell-based; settings: Hs766T, 72 h, Pancreatic, MTAP Positive, 3 days
NCI-H2452 [3] = assay: Docetaxel, 5-FU, SDX-102 alone or combined, MTT/MTS cytotoxicity (Example 4); format: cell-based; settings: Homo sapiens; NCI-H2452, Mesothelioma, single agent, MTT 72 hours
NCI-H2452 [4] = assay: Intracellular ATP levels (Cell-Titer Glow); format: cell-based; settings: Homo sapiens, 72 h; NCI-H2452, Mesothelioma, MTAP Negative; 3 day treatment; read-out: ATP IC50
Description: (§1) MTAP status was determined using immunoblot analyses and correlated with the ability of an MTA analog to rescue ATP levels in cell lines treated with SDX-102. ATP levels were measured using Cell-Titer Glow™ (Promega) after a 3 day treatment with titrated concentrations of either SDX-102 or pemetrexed.

BxPC3 = assay: Intracellular ATP levels (Cell-Titer Glow); format: cell-based; settings: Homo sapiens, BXPC-3, 72 h; BxPC3, Pancreatic, MTAP Negative; 3 day treatment
Description: as §1

A-594 = assay: Intracellular ATP levels (Cell-Titer Glow); format: cell-based; settings: 72 h; A-594, NSCLC, MTAP Negative; 3 day treatment
Description: as §1

mice = settings: cited from earlier work
A549 NSCLC xenografts = assay: MTAP-negative A549 NSCLC xenografts in SCID mice; format: in vivo; settings: 60 days monitoring, doses as administered
NCI-H292 = assay: Docetaxel, 5-FU, SDX-102 alone or combined, MTT/MTS cytotoxicity (Example 4); format: cell-based; settings: Homo sapiens; NCI-H292, NSCLC, single agent, MTT 72 hours
NCI-H322M = assay: as above; format: cell-based; settings: Homo sapiens, NSCLC, single agent, MTT 72 hours
[5] = Temperature and pH effects on stability (5 days at 5° C. or 80° C.); format: physicochemical; settings: for osmolality: about 20 mg/mL
Description: Stability studies were then performed at different pHs. […] The pH of the solution was then adjusted in increments of 0.5 using 1N NaOH. Stability measurements of two duplicate samples were taken at each increment, beginning at pH 6.5 up through pH 9.0, and one sample was taken at pH 12.2. One set of samples was stored at 5° C., the other at 80° C., for five days, after which they were analyzed for pH, physical appearance, osmolality, and impurities. […] Here, impurities were determined by reverse phase HPLC as described herein.

A-427 = assay: Cell viability MTT assay (Example 3); format: cell-based; settings: Homo sapiens, 72 h; A-427, NSCLC, MTAP Positive; 3 days

For NC(CN(O)N=O)C(=O)O [L-alanosine, L(−)-2-amino-3-nitrosohydroxylaminopropionic acid], the “single bolus dose at which renal toxicity reported” value ([1]; human, in vivo) is listed as “above 4 g/m^2 body weight”, the dose-limiting toxicity ([1]; phase II, adults with acute non-lymphoblastic leukemia, continuous infusion about 125 mg/m^2 for 5 days) is listed as “mucositis” and the IC50 (PANC-1) is listed as 10 ± 5 µM. For the same molecule, the “stability versus freshly reconstituted lyophilizate (HPLC)” value [2] was “as stable after storage at 5 °C for six months as a composition prepared by freshly reconstituting lyophilized L-alanosine”, the IC50 (HS-766T) was > 20 µM and the IC50 (NCI-H2452 [3]) was 1 ± 0.5 µM. The IC50 (NCI-H2452 [4]) was 0.4 µM, the IC50 (BxPC3) was 0.6 µM and the IC50 (A-594) was 0.3 µM. For the same molecule, the LD50 (mice; administered intraperitoneally) was 600 mg/kg, the LD50 (mice; given intravenously) was 300 mg/kg and the tumor growth inhibition (A549 NSCLC xenografts) was “did not induce tumor growth inhibition”. The IC50 (NCI-H292) was 0.2 ± 0.06 µM, the IC50 (NCI-H322M) was 6 ± 1 µM and the “impurities as a function of pH” value ([5]; 80° C. five days, pH 6.5-12.2, HPLC) was “inverse relationship between the amount of impurities and pH”. The osmolality ([5]; pH 6.5, stored at 5° C. five days) was 225 mOsm, the osmolality ([5]; pH 6.5, stored at 80° C. five days) was 247 mOsm and the osmolality ([5]; pH 8.0, stored at 5° C. five days) was 272 mOsm. For the same molecule, the osmolality ([5]; pH 8.0, stored at 80° C. five days) was 273 mOsm and the IC50 (A-427) was 3.3 µM.
